Data on one compound can be found in patent US12702643B2, “Ion-exchange composition with water-soluble mucoadhesive polymers” (Fertin Pharma A/S, priority 2019, dated 2026).

Molecules are shown by their SMILES.

The conditions of the data set: increase of nicotine concentration from 100 microgram/mL to 14,000 microgram/mL.

Regarding `CN1CCCC1c1cccnc1` (stereo not shown) [nicotine], the “Permeability of nicotine across the buccal mucosa” value is on record as “decrease of about a factor of two”.
